Data: PubChem BioAssay AID248 (DTP/NCI, 2004)
“And” between values parts separate entries of the source, which are not always exact repeats. Equal entries are not always repeated. Inconclusive results and toxic doses are left out. Cut-off read from the data, not from the text of the source: active = T/C of 150% or more; inactive = T/C below 125%.

System: L1210 leukemia ip in BDF1 mice, survival T/C
Test: NCI In Vivo Anticancer Drug Screen. Data for tumor model L1210 Leukemia (intraperitoneal) in B6D2F1 (BDF1) mice
Settings: endpoint: mean survival time, higher = longer survival
Method in brief: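 Each compound was tested against a transplantable tumor grown in mice. The endpoint was survival, with treated animals benchmarked against vehicle controls as a simple ratio.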

[1] = dose: 50.0 mg/kg/injection, schedule: Q01DX001 (ip), vehicle: carboxymethylcellulose (CMC)
[2] = dose: 100.0 mg/kg/injection, schedule: Q01DX001 (ip), vehicle: carboxymethylcellulose (CMC)
[3] = dose: 200.0 mg/kg/injection, schedule: Q01DX001 (ip), vehicle: carboxymethylcellulose (CMC)
[4] = dose: 100.0 mg/kg/injection, schedule: Q04DX003 (ip), vehicle: saline with Tween-80
[5] = dose: 200.0 mg/kg/injection, schedule: Q04DX003 (ip), vehicle: saline with Tween-80
[6] = dose: 400.0 mg/kg/injection, schedule: Q04DX003 (ip), vehicle: saline with Tween-80
[7] = dose: 75.0 mg/kg/injection, schedule: Q04DX003 (ip), vehicle: saline
[8] = dose: 150.0 mg/kg/injection, schedule: Q04DX003 (ip), vehicle: saline
[9] = dose: 300.0 mg/kg/injection, schedule: Q04DX003 (ip), vehicle: saline

Measured: T/C

CN(C)c1ccc(/C=C/c2cc[n+](C)cc2)cc1
inactive: dose: 8.0 mg/kg/injection, schedule: Q04DX003 (ip), vehicle: saline with Tween-80 100 % of control | dose: 16.0 mg/kg/injection, schedule: Q04DX003 (ip), vehicle: saline with Tween-80 95 % of control

c1ccc(-c2cnc(-c3ccccc3)cn2)cc1
inactive: dose: 25.6 mg/kg/injection, schedule: Q04DX002 (ip), vehicle: saline with Tween-80 112 % of control | dose: 64.0 mg/kg/injection, schedule: Q04DX002 (ip), vehicle: saline with Tween-80 96 % of control | dose: 160.0 mg/kg/injection, schedule: Q04DX002 (ip), vehicle: saline with Tween-80 93 % of control | dose: 400.0 mg/kg/injection, schedule: Q04DX002 (ip), vehicle: saline with Tween-80 104 % of control

C[n+]1cccc(C(=O)O)c1
inactive: [1] 95 % of control | [2] 95 % of control | [3] 98 % of control

CSc1ncnc2c1ncn2-n1c(C)ccc1C
inactive: dose: 100.0 mg/kg/injection, schedule: Q01DX001 (ip), vehicle: saline with Tween-80 89 % of control | [4] 96 % of control | dose: 200.0 mg/kg/injection, schedule: Q01DX001 (ip), vehicle: saline with Tween-80 90 % of control | [5] 94 % of control | dose: 400.0 mg/kg/injection, schedule: Q01DX001 (ip), vehicle: saline with Tween-80 93 % of control | [6] 93 % of control

O=C(Cc1ccccc1)OC1CC2CC1C1CCCC21 (stereo unspecified)
inactive: [1] 96 % of control | [2] 98 % of control | [3] 104 % of control | dose: 400.0 mg/kg/injection, schedule: Q01DX001 (ip), vehicle: carboxymethylcellulose (CMC) 96 % of control

Clc1nc2nc3n(c2nc1Cl)CCC3(Br)Br
inactive: dose: 12.5 mg/kg/injection, schedule: Q01DX009 (ip), vehicle: other 112 % of control | dose: 25.0 mg/kg/injection, schedule: Q01DX009 (ip), vehicle: other 114 % of control | dose: 50.0 mg/kg/injection, schedule: Q01DX009 (ip), vehicle: other 112 % of control | dose: 100.0 mg/kg/injection, schedule: Q01DX009 (ip), vehicle: other 110 % of control

CCCCCS(=O)(=O)N1CCCCC1
inactive: dose: 100.0 mg/kg/injection, schedule: Q04DX002 (ip), vehicle: other 103 % of control | dose: 200.0 mg/kg/injection, schedule: Q04DX002 (ip), vehicle: other 92 % of control | dose: 400.0 mg/kg/injection, schedule: Q04DX002 (ip), vehicle: other 107 % of control

COC1CCC(C2=NC3CCCCC3SC2)CC1 (stereo unspecified)
inactive: dose: 100.0 mg/kg/injection, schedule: Q04DX002 (sc), vehicle: olive oil, sesame oil, peanut oil 97 % of control | dose: 200.0 mg/kg/injection, schedule: Q04DX002 (sc), vehicle: olive oil, sesame oil, peanut oil 107 % of control | dose: 400.0 mg/kg/injection, schedule: Q04DX002 (sc), vehicle: olive oil, sesame oil, peanut oil 100 % of control

O=C1C2CCCCC2C(=O)N1C1=NC=NC2=NC=NC21 (stereo unspecified)
inactive: [4] 98 % of control | [5] 101 % of control | [6] 95 % of control

CC(=O)Nc1cc2[nH]cnc2c(Br)n1
inactive: dose: 25.0 mg/kg/injection, schedule: Q01DX005 (ip), vehicle: saline 100 % of control | dose: 50.0 mg/kg/injection, schedule: Q01DX005 (ip), vehicle: saline 105 % of control | dose: 100.0 mg/kg/injection, schedule: Q01DX005 (ip), vehicle: saline 110 % of control

CCOP(=O)(OCC)OC(=O)N(CC)CC
inactive: dose: 100.0 mg/kg/injection, schedule: Q04DX002 (ip), vehicle: saline 112 % of control | dose: 200.0 mg/kg/injection, schedule: Q04DX002 (ip), vehicle: saline 120 % of control

CCOC(=O)C(CC1CCCCC1)(NC(C)=O)C(=O)OCC
inactive: [7] 96 % of control | [8] 104 % of control | [9] 100 % of control

Cc1cccc2c3c([nH]c12)CCSC3
inactive: [4] 108 % of control | [5] 105 % of control | [6] 111 % of control

C=CCOC(=O)C(=O)OCC=C
inactive: dose: 100.0 mg/kg/injection, schedule: Q01DX009 (ip), vehicle: saline with Tween-80 95 % of control

O=C(O)/C=C/C1CCCCC1
inactive: dose: 75.0 mg/kg/injection, schedule: Q01DX001 (ip), vehicle: saline 97 % of control | dose: 150.0 mg/kg/injection, schedule: Q01DX001 (ip), vehicle: saline 95 % of control | dose: 300.0 mg/kg/injection, schedule: Q01DX001 (ip), vehicle: saline 95 % of control

COc1ccc(C2(SCC(N)C(=O)O)c3ccccc3-c3ccccc32)cc1 (stereo unspecified)
inactive: dose: 25.0 mg/kg/injection, schedule: Q01DX009 (ip), vehicle: saline 101 % of control | dose: 50.0 mg/kg/injection, schedule: Q01DX009 (ip), vehicle: saline 98 % of control | dose: 100.0 mg/kg/injection, schedule: Q01DX009 (ip), vehicle: saline 95 % of control | dose: 200.0 mg/kg/injection, schedule: Q01DX009 (ip), vehicle: saline 93 % of control | dose: 300.0 mg/kg/injection, schedule: Q01DX009 (ip), vehicle: saline 98 % of control | dose: 400.0 mg/kg/injection, schedule: Q01DX009 (ip), vehicle: saline 102 % of control

O=C1C=Cc2ccc3c4c(ccc1c24)C=CC3=O
inactive: dose: 100.0 mg/kg/injection, schedule: Q04DX003 (ip), vehicle: acetone 98 % of control | dose: 200.0 mg/kg/injection, schedule: Q04DX003 (ip), vehicle: acetone 91 % of control

CCCCC(C)C(C#N)(NC(C)=O)C(=O)OCC (stereo unspecified)
inactive: [7] 109 % of control | [8] 98 % of control | [9] 91 % of control

CC(C)(Cl)N=Nc1ccc([N+](=O)[O-])cc1[N+](=O)[O-]
inactive: [4] 96 % of control | [5] 98 % of control | [6] 88 % of control

O=C1C=CC(=O)N1c1ccc(F)cc1
inactive: dose: 25.0 mg/kg/injection, schedule: Q04DX003 (ip), vehicle: saline with Tween-80 108 % of control

COc1ccc(-c2cc(-c3ccccc3)c3ccccc3n2)c(OC)c1OC
inactive: dose: 100.0 mg/kg/injection, schedule: Q01DX009 (ip), vehicle: Klucel (hydroxypropylcellulose) (HPC) 100 % of control | dose: 200.0 mg/kg/injection, schedule: Q01DX009 (ip), vehicle: Klucel (hydroxypropylcellulose) (HPC) 90 % of control | dose: 400.0 mg/kg/injection, schedule: Q01DX009 (ip), vehicle: Klucel (hydroxypropylcellulose) (HPC) 90 % of control

CCCCn1cnc2c(=O)[nH]cnc21
inactive: dose: 66.12 mg/kg/injection, schedule: Q01DX Z (ip), vehicle: carboxymethylcellulose (CMC) 93 % of control | dose: 132.25 mg/kg/injection, schedule: Q01DX Z (ip), vehicle: carboxymethylcellulose (CMC) 94 % of control | dose: 132.25 mg/kg/injection, schedule: Q01DX Z (oral), vehicle: carboxymethylcellulose (CMC) 100 % of control | dose: 264.5 mg/kg/injection, schedule: Q01DX Z (ip), vehicle: carboxymethylcellulose (CMC) 90 % of control | dose: 264.5 mg/kg/injection, schedule: Q01DX Z (oral), vehicle: carboxymethylcellulose (CMC) 96 % of control | dose: 529.0 mg/kg/injection, schedule: Q01DX Z (oral), vehicle: carboxymethylcellulose (CMC) 94 % of control

COc1ccc(OCC(=O)N2CCCCCC2)cc1
inactive: [1] 100 % of control | dose: 50.0 mg/kg/injection, schedule: Q01DX009 (ip), vehicle: carboxymethylcellulose (CMC) 94 % of control | dose: 50.0 mg/kg/injection, schedule: Q04DX003 (ip), vehicle: carboxymethylcellulose (CMC) 103 % of control | [2] 106 % of control | dose: 100.0 mg/kg/injection, schedule: Q01DX009 (ip), vehicle: carboxymethylcellulose (CMC) 94 % of control and 96 % of control | dose: 100.0 mg/kg/injection, schedule: Q04DX002 (ip), vehicle: carboxymethylcellulose (CMC) 91 % of control | dose: 100.0 mg/kg/injection, schedule: Q04DX003 (ip), vehicle: carboxymethylcellulose (CMC) 100 % of control | [3] 109 % of control | dose: 200.0 mg/kg/injection, schedule: Q01DX009 (ip), vehicle: carboxymethylcellulose (CMC) 97 % of control and 100 % of control | dose: 200.0 mg/kg/injection, schedule: Q04DX002 (ip), vehicle: carboxymethylcellulose (CMC) 105 % of control | dose: 200.0 mg/kg/injection, schedule: Q04DX003 (ip), vehicle: carboxymethylcellulose (CMC) 102 % of control | dose: 400.0 mg/kg/injection, schedule: Q04DX002 (ip), vehicle: carboxymethylcellulose (CMC) 96 % of control

CNC(C)C1CCC2C3CC=C4CC(O)CCC4(C)C3CCC12C (stereo unspecified)
inactive: dose: 100.0 mg/kg/injection, schedule: Q01DX001 (sc), vehicle: steriod suspending solution 104 % of control | dose: 200.0 mg/kg/injection, schedule: Q01DX001 (sc), vehicle: steriod suspending solution 87 % of control | dose: 400.0 mg/kg/injection, schedule: Q01DX001 (sc), vehicle: steriod suspending solution 94 % of control
